# Measurements: US20230364118A1, “RIBITOL TREATMENT” (priority 2020, published 2023)
# “Also recorded” adds a separate entry of the source. Read-outs that look alike come from different tables or passages of the source.
# Columns and labels:
# hERG = hERG (Homo sapiens, UniProt Q12809); test: in vitro
# Protocol: Therefore, the concentrations chosen for the definitive hERG assay were 0.1, 0.3, 1, and 3 mM, the detected concentrations of postperfusion solution were 0.101, 0.293, 0.999, and 2.90 mM, respectively.
# [1] = 7-day repeat-dose oral toxicokinetics; assay type: in vivo, CD-1 mouse; conditions: for Cmax / Tmax / AUC(0-t): CD-1, mouse, plasma, po; for AUC(0-t): read-out: AUC0-24
# Protocol: Toxicokinetics were evaluated as part of a 7-day oral repeat-dose dose range finding study in CD-1 mice. […] On Days 1 and 7, blood was collected for plasma toxicokinetics (TK) from the treatment groups at 0 (pre-first dose), 0.5, 2, 4, 6 (pre-second dose), 6.5, 8, 10, 12, and 24 hours post-first dose. In the vehicle control group, blood was collected for plasma TK on Day 1 and Day 7 at 0.5 and 6.5 hours post-first dose.
# in vivo = test: in vivo; design: species or system mouse
# [2] = Metabolic stability, all species; assay type: in vitro ADME, CD-1 mouse, Sprague-Dawley rat, Gottingen minipig, human; conditions: incubated up to 2 hours, all four species
# Protocol: Metabolic stability of ribitol was conducted in liver microsomes, cytosol, and primary hepatocytes, from CD-1 mouse, Sprague-Dawley rat, Gottingen minipig, and human at a concentration of ribitol of 10 μM.
# Therefore, metabolism is unlikely to be a major elimination pathway of ribitol.
# [3] = Single intravenous dose PK; assay type: in vivo, CD-1 mouse; conditions: for CLs: CD-1 mice; for clearance: read-out: Systemic clearance (CLs)
# Protocol: The PK of ribitol was studied in male and female CD-1 mice following three IV doses at 10, 30, and 100 mg/kg (n=3/dose/sex). Blood samples were collected serially up to 24 hours post dose.
# [4] = PK comparison QD, BID, TID oral dosing; assay type: in vivo; conditions: CD-1, mouse, plasma; for AUC(0-inf) / Cmax / half-life: po, 0.3 g/kg
# Protocol: Each regimen was studied in 3 male and 3 female CD-1 mice. PK of ribitol following the final dose was compared among these three regimens. The first and the second subsets of mice receiving QD and BID of ribitol were bled at 0.5, 1, 2, 4, and 6 hours post QD dosing and the second dose of the BID dosing, respectively; the third subset of mice receiving TID of ribitol were bled at 0.5, 1, 2, 4 and 12 hours post the third dose.
# [5] = Functional observational battery (FOB)
# Protocol: In this GLP study, the potential effects of ribitol on the CNS were evaluated in CD-1 mice utilizing the FOB. Male mice were randomly assigned to 4 groups of 8 and were administered a single oral dose of 0 (vehicle, purified water), 0.5, 1.0, or 2.0 g/kg ribitol. The FOB tests were conducted pre dose, and at 0.5, 1, 2, 4, and 24 hours post dose.
# [6] = Plasma protein binding, animals pooled (range); assay type: in vitro ADME, CD-1 mouse; conditions: CD-1, Sprague-Dawley, Gottingen, mouse, rat, minipig, animal plasma, 0.49 and 1.31 mM
# Protocol: Protein binding studies with ribitol were performed in vitro using plasma from CD-1 mouse, Sprague-Dawley rat, Gottingen minipig, and human at 75 μg/mL (0.49 mM) and 200 μg/mL (1.31 mM) using the rapid equilibrium dialysis method. The percent of ribitol bound to plasma was approximately similar between the two concentrations tested in all species.
# [7] = female, 0.5 g/kg, 0.5 g/kg/dose BID, Day 1, F
# [8] = female, 0.5 g/kg, 0.5 g/kg/dose BID, Day 7, F
# [9] = female, 1 g/kg, 1.0 g/kg/dose BID, Day 1, F
# [10] = female, 1 g/kg, 1.0 g/kg/dose BID, Day 7, F
# [11] = female, 1.5 g/kg, 1.5 g/kg/dose BID, Day 1, F
# [12] = female, 1.5 g/kg, 1.5 g/kg/dose BID, Day 7, F
# [13] = male, 0.5 g/kg, 0.5 g/kg/dose BID, Day 1, M
# [14] = male, 0.5 g/kg, 0.5 g/kg/dose BID, Day 7, M
# [15] = male, 1 g/kg, 1.0 g/kg/dose BID, Day 1, M
# [16] = male, 1 g/kg, 1.0 g/kg/dose BID, Day 7, M
# [17] = male, 1.5 g/kg, 1.5 g/kg/dose BID, Day 1, M
# [18] = male, 1.5 g/kg, 1.5 g/kg/dose BID, Day 7, M
# [19] = female, PO 0.3 g/kg/dose BID, last dose
# [20] = female, PO 0.3 g/kg/dose TID, last dose
# [21] = male, PO 0.3 g/kg/dose BID, last dose
# [22] = male, PO 0.3 g/kg/dose TID, last dose
# Sequence of hERG (Q12809 whole entry): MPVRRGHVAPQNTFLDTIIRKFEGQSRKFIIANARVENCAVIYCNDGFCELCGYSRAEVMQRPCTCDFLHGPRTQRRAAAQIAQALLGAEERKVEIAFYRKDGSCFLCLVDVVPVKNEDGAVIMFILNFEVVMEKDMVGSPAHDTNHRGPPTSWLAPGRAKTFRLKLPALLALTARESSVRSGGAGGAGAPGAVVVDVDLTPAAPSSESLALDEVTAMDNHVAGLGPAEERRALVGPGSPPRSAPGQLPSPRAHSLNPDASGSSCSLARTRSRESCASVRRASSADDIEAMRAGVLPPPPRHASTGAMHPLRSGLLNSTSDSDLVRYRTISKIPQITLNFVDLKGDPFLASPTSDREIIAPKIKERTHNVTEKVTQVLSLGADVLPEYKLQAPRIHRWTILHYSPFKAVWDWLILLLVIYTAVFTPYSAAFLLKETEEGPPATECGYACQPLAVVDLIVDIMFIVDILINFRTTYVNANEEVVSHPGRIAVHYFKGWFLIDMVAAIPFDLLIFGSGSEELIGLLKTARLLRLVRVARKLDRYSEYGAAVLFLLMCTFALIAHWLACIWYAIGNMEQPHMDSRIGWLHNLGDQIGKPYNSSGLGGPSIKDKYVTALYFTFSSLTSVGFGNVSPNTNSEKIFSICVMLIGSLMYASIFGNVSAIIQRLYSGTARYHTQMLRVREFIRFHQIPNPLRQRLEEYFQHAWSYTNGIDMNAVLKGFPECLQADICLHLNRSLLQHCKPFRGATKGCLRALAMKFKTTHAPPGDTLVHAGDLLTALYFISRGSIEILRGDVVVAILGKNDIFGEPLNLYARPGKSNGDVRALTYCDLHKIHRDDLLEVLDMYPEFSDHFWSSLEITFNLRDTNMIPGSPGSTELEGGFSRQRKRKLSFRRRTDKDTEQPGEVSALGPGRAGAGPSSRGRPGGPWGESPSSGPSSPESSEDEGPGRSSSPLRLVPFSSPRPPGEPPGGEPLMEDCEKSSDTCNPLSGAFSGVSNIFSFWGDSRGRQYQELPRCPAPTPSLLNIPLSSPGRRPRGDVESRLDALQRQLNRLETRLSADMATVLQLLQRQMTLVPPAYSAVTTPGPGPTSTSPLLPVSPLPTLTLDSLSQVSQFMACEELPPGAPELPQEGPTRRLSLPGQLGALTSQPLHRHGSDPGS
smiles,measurement,setting,value
"OC[C@@H](O)[C@@H](O)[C@@H](O)CO [ribitol, (2R,3s,4S)-Pentane-1,2,3,4,5-pentol]",inhibition at 0.03 mM,hERG,3.09%
same,inhibition at 0.3 mM,hERG,6.43%
same,inhibition at 3 mM,hERG,7.82%
same,drug accumulation,"[1]; Day 7 vs Day 1, any dose level",no apparent drug accumulation
same,time of maximum plasma concentrations,"[1]; after the first dose, Days 1 and 7 (exception females 0.5 g/kg BID Day 1)",6.5 h
same,Cmax,[1]; [7],141 µg/mL
same,Tmax,[1]; [7],0.5 h
same,AUC(0-t),[1]; [7],298 µg·h/mL
same,Cmax,[1]; [8],100 µg/mL
same,Tmax,[1]; [8],6.5 h
same,AUC(0-t),[1]; [8],218 µg·h/mL
same,Cmax,[1]; [9],282 µg/mL
same,Tmax,[1]; [9],6.5 h
same,AUC(0-t),[1]; [9],427 µg·h/mL
same,Cmax,[1]; [10],210 µg/mL
same,Tmax,[1]; [10],6.5 h
same,AUC(0-t),[1]; [10],319 µg·h/mL
same,Cmax,[1]; [11],339 µg/mL
same,Tmax,[1]; [11],6.5 h
same,AUC(0-t),[1]; [11],504 µg·h/mL
same,Cmax,[1]; [12],266 µg/mL
same,Tmax,[1]; [12],6.5 h
same,AUC(0-t),[1]; [12],602 µg·h/mL
same,Cmax,[1]; [13],121 µg/mL
same,Tmax,[1]; [13],6.5 h
same,AUC(0-t),[1]; [13],246 µg·h/mL
same,Cmax,[1]; [14],118 µg/mL
same,Tmax,[1]; [14],6.5 h
same,AUC(0-t),[1]; [14],170 µg·h/mL
same,Cmax,[1]; [15],265 µg/mL
same,Tmax,[1]; [15],6.5 h
same,AUC(0-t),[1]; [15],414 µg·h/mL
same,Cmax,[1]; [16],237 µg/mL
same,Tmax,[1]; [16],6.5 h
same,AUC(0-t),[1]; [16],345 µg·h/mL
same,Cmax,[1]; [17],316 µg/mL
same,Tmax,[1]; [17],6.5 h
same,AUC(0-t),[1]; [17],595 µg·h/mL
same,Cmax,[1]; [18],305 µg/mL
same,Tmax,[1]; [18],6.5 h
same,AUC(0-t),[1]; [18],562 µg·h/mL
same,AUC(0-t),"in vivo; CD-1, mouse, po, 0.5 mg/kg/day, AUC(0-24), calculated exposure",182 µg·h/mL
same,AUC(0-t),"in vivo; CD-1, mouse, po, 2 g/kg/day, AUC(0-24), calculated exposure",727 µg·h/mL
same,AUC(0-t),"in vivo; female, CD-1, mouse, po, 3 g/kg/day, Steady-state AUC(0-24)",839 µg·h/mL
same,AUC(0-t),"in vivo; female, mouse, 3 g/kg/day, Steady-state AUC(0-24)",749 µg·h/mL
same,AUC(0-t),"in vivo; male, CD-1, mouse, po, 3 g/kg/day, Steady-state AUC(0-24)",1340 µg·h/mL
same,AUC(0-t),"in vivo; male, mouse, 3 g/kg/day, Steady-state AUC(0-24)",974 µg·h/mL
same,"metabolic stability in liver microsomes, cytosol, hepatocytes",[2],stable; also recorded: not metabolized by the enzymes in the liver
same,AUC(0-inf),"[3]; CD-1, mouse, plasma, IV 10 mg/kg, female",13.3 µg·h/mL
same,Vd,"[3]; CD-1, mouse, plasma, IV 10 mg/kg, female, read-out: Vss",4.27 L/kg
same,AUC(0-inf),"[3]; CD-1, mouse, plasma, IV 10 mg/kg, male",7.32 µg·h/mL
same,Vd,"[3]; CD-1, mouse, plasma, IV 10 mg/kg, male, read-out: Vss",1.49 L/kg
same,AUC(0-inf),"[3]; CD-1, mouse, plasma, IV 30 mg/kg, female",20.1 µg·h/mL
same,Vd,"[3]; CD-1, mouse, plasma, IV 30 mg/kg, female, read-out: Vss",3 L/kg
same,AUC(0-inf),"[3]; CD-1, mouse, plasma, IV 30 mg/kg, male",22.3 µg·h/mL
same,Vd,"[3]; CD-1, mouse, plasma, IV 30 mg/kg, male, read-out: Vss",6.74 L/kg
same,AUC(0-inf),"[3]; CD-1, mouse, plasma, IV 100 mg/kg, female",43.1 µg·h/mL
same,Vd,"[3]; CD-1, mouse, plasma, IV 100 mg/kg, female, read-out: Vss",2.67 L/kg
same,AUC(0-inf),"[3]; CD-1, mouse, plasma, IV 100 mg/kg, male",49.7 µg·h/mL
same,Vd,"[3]; CD-1, mouse, plasma, IV 100 mg/kg, male, read-out: Vss",2.01 L/kg
same,CLs,"[3]; IV 10 mg/kg, female",12.6 mL/min/kg
same,CLs,"[3]; IV 10 mg/kg, male",23.4 mL/min/kg
same,clearance,"[3]; both sexes, CD-1, plasma, mouse, IV 100 mg/kg, range",33.6 to 38.9 mL/min/kg
same,clearance,"[3]; both sexes, CD-1, plasma, mouse, IV 10 and 30 mg/kg, range",12.6 to 25 mL/min/kg
same,Vd,"[3]; both sexes, CD-1, plasma, mouse, IV, range, read-out: Volume of distribution at steady state (Vss)",1.49 to 6.74 L/kg
same,Tmax,"[4]; PO 0.3 g/kg QD, female",0.5 h
same,Tmax,"[4]; PO 0.3 g/kg QD, male",0.5 h
same,AUC(0-inf),"[4]; female, PO 0.3 g/kg QD",47.1 µg·h/mL
same,Cmax,"[4]; female, PO 0.3 g/kg QD",33.3 µg/mL
same,half-life,"[4]; female, PO 0.3 g/kg QD",1.17 h
same,AUC(0-inf),[4]; [19],48.3 µg·h/mL
same,Cmax,[4]; [19],28.3 µg/mL
same,half-life,[4]; [19],0.984 h
same,AUC(0-inf),[4]; [20],40.6 µg·h/mL
same,Cmax,[4]; [20],43.9 µg/mL
same,half-life,[4]; [20],0.53 h
same,AUC(0-inf),"[4]; male, PO 0.3 g/kg QD",45.2 µg·h/mL
same,Cmax,"[4]; male, PO 0.3 g/kg QD",34.2 µg/mL
same,half-life,"[4]; male, PO 0.3 g/kg QD",0.839 h
same,AUC(0-inf),[4]; [21],49.6 µg·h/mL
same,Cmax,[4]; [21],27.4 µg/mL
same,half-life,[4]; [21],1.5 h
same,AUC(0-inf),[4]; [22],28.2 µg·h/mL
same,Cmax,[4]; [22],31.4 µg/mL
same,half-life,[4]; [22],0.454 h
same,treatment-related effects on FOB parameters,"[5]; 0.5, 1.0, 2.0 g/kg, 0.5-24 h post dose",no treatment-related effects
same,safety margin for proposed clinical starting dose,"[5]; male, CD-1, mouse, in vivo, 24 h",19 fold
same,"NOEL, CNS effects (FOB)","[5]; single oral dose, male, highest dose tested",2000 mg/kg
same,fraction unbound,[6],0.554 to 0.614
